Assay results published in US20220339135A1, “COMPOSITIONS AND METHODS FOR MODULATING AN INFLAMMATORY RESPONSE” (Enzychem Lifesciences Corporation, priority 2019, published 2022).

Legend:
[1] = system: P2Y6 receptor on THP-1 cells; assay: MSU-induced P2Y6 receptor trafficking; assay type: cell-based, human
Description: (§1) THP-1 cells were divided into two groups: 1) MSU treated group and 2) MSU/PLAG treated group. For MSU treated group, THP-1 cells were stimulated with monosodium urate (MSU) crystal (400 μg/ml) for 0, 10, 20, 30, 40, 50, 60 minutes. For MSU/PLAG treated group, THP-1 cells were pre-incubated with PLAG (100 μg/ml) for an hour and then stimulated with monosodium urate (MSU) crystal (400 μg/ml) for 0, 10, 20, 30, 40, 50, 60 minutes. Then, cells were harvested. (A) To detect for the P2Y6 receptor on the membrane surface, cells were fixed with 4% paraformaldehyde (Sigma-Aldrich) and incubated with PBS containing 1% BSA for blocking. They were labeled with the rabbit anti-P2Y6 receptor antibody (1:200, APR-011, Alomone Labs, Jerusalem, Israel) for 1 h. The detection Ab was used with Alexa Flour 488 goat anti-rabbit IgG (Invitrogen). (B) To detect lysosomal activity, THP-1 cells were stained with Texas red conjugated-LYSO-ID® Lysosomal Detection Kit (Enzo Life Sciences, Inc.). Finally, cells were washed with 1% FBS/PBS and mounted with DAPI-containing fluorescence microscopy mounting medium (Invitrogen). Confocal samples were analyzed with a laser scanning confocal microscope (Carl Zeiss, Oberkochen, Germany). For flow cytometric analysis, cells were washed and analyzed with a FACSVerse flow cytometer (BD Biosciences). FlowJo software (Tree Star, OR, USA) was used data processing.
The specific siRNA of CD36 (sc-29995) and control siRNA (sc-37007) were purchased from Santa Cruz Biotechnology. Cells were transfected with 50 nM of either the targeting or control siRNA using HiPerFect Transfection Reagent (Qiagen, Hilden, Germany) for 24 h. The knockdown efficiency of siRNAs was confirmed by Western blot analysis.
THP-1 cells were pre-incubated with PLAG (100 μg/ml) for 1 hour and then stimulated with MSU crystal (400 μg/ml). After 15, 30, 60 min, cells were harvested. […] For flow cytometric analysis, cells were washed with 1% FBS/PBS and analyzed with a FACSVerse flow cytometer (BD Biosciences). […]

[2] = system: apoptotic neutrophils (differentiated HL60) co-cultured with macrophage (differentiated THP-1); assay: Efferocytosis index and apoptotic cell clearance; assay type: cell-based, human
Description: THP-1 and HL60 cells were obtained from the American Type Culture Collection (ATCC, Rockville, Md., USA). THP-1 cells were grown in RPMI1640 medium (WELGENE, Seoul, Korea) containing 10% fetal bovine serum (HyClone, Waltham, Mass., USA), 1% antibiotics (100 mg/l streptomycin, 100 U/ml penicillin), and 0.4% 2-Mercaptoethanol (Sigma Aldrich, St. Louis, Mo., USA). HL60 cells were grown in RPMI1640 medium containing 20% fetal bovine serum and 1% antibiotics (100 mg/l streptomycin, 100 U/ml penicillin). Cells were grown at 37° C. in a 5% CO2 atmosphere. To differentiate THP-1 cells into macrophage-like cells, cells were grown in medium with 1% Phorbol 12-myristate 13-acetate (PMA) (Sigma Aldrich) for 72 h. To differentiate […] cells into neutrophil-like cells, cells were grown in medium with 10% DMSO (Sigma Aldrich) for 5 days
Differentiation HL60 was stained with […] CellTracker Red CMTPX (Molecular probes, Eugene, OG, USA) for 30 minutes in PBS and lead to apoptosis by PMA treatment for 24 hours. […] Efferocytotic index was analyzed by FACS (BD bioscience, Franklin Lakes, N.J., USA). […]
Differentiation HL60 was stained with […] CellTracker Red CMTPX (Molecular probes, Eugene, OG, USA) for 30 minutes in PBS and lead to apoptosis by PMA treatment. […] Fluorescence overlay videos were recorded using ZEN program (Carl Zeiss, Thornwood, NY, USA)

[3] = system: lysosomal activity in THP-1 cells; assay: MSU-induced lysosomal activity; assay type: cell-based, human; settings: MSU/PLAG treated cells
Description: as §1

[4] = Whole-body autoradiography after single oral [14C] PLAG; assay type: in vivo, rats; settings: 200 mg/kg oral
Description: Tissue distribution of the PLAG after single oral administration of [^14C] PLAG was conducted in Biotoxtech (Korea) using whole-body autoradiography. Crl:CD (SD) strain albino rats received the single oral administration of [^14C] PLAG at a dose of 200 mg/kg and the animals were sacrificed by CO2 asphyxiation at defined times, and whole body autoradiograms were prepared to investigate the tissue distribution of radioactivity and its time course. Sampling time points are 15 minutes, 1 hour, 8 hours, and 24 hours after administration. The carcass was sliced into 40 micro meter-thick coronal plane sections that were collected on adhesive tape (NA-70, Nakagawa). The freeze-dried sections covered with a protective membrane were placed in contact with imaging plate (BAS-SR2025, Fuji Photo Film) and the plates were exposed in lead-sealed boxes at room temperature for 24 hours. After exposure, the radioactivity recorded on the imaging plate was analyzed using a bio-imaging analyzer system.

CCCCC/C=C\C/C=C\CCCCCCCC(=O)OC(COC(C)=O)COC(=O)CCCCCCCCCCCCCCC (racemic) [PLAG, 1-palmitoyl-2-linoleoyl-3-acetylglycerol]
P2Y6 endocytosis initiates ([1]; MSU/PLAG treated cells): about 10 minutes | P2Y6 returned to the surface ([1]; MSU/PLAG treated cells): about 30 minutes | promotion of P2Y6 receptor endocytosis (flow cytometry) ([1]; control and CD36 silenced cells): still observed | clearance of apoptotic neutrophils by macrophage phagocytosis observed within ([2]; PLAG 100 μg/mL, confocal): ≤ 30 min | efferocytosis of apoptotic neutrophils (efferocytotic index) ([2]; dose-dependently): promotes | lysosomal activity detected [3]: about 10 minutes | lysosomal activity returned [3]: about 30 minutes | radioactivity in stomach and intestinal tract incl. luminal contents ([4]; 15 minutes to 1 hour): high levels | radioactivity in the liver and brown fat tissues ([4]; 8 hours): Moderate levels | radioactivity in the luminal side of the stomach ([4]; 8 hours): high levels | radioactivity in the liver ([4]; 24 hours): low levels | radioactivity in other tissues ([4]; any sampling time point): not different from background level | radioactivity in the liver ([4]; up to 1 hour): Low levels
